Measurements reported in patent US11419913B2, “Pharmaceutical compositions for inhibiting inflammatory cytokines” (S.I.S. SHULOV INNOVATIVE SCIENCE LTD., priority 2018, dated 2022).
Entries after “also recorded” stand apart in the source; their conditions may differ. Marks after values point to notes of the source that are not given here. Where a SMILES comes first, the peptide text is derived from it. [ ]: non-standard residue; d: D form. The star is where a group is joined. pGlu = O=C1CC[C@@H](C(=O)O)N1; Octanoyl = CCCCCCCC(=O)*

How the values were obtained:
[1] = system: TNF alpha; experiment: Expression of TNF alpha by B6 macrophage cells treated with LPS and palmitic acid; format: cell-based, mouse
Protocol: Macrophages originating from C57BL/6 mice were cultured at a density of 200,000 cells/mL in a 24-well plate (500 μl wells) and incubated at 37° C. and 5% CO2 overnight. Following incubation, culture media in certain experimental groups were replaced with fresh media containing 100 ng/mL LPS, followed by three hours incubation. Then, the media (LPS-containing or LPS-free) in certain experimental groups were replaced with fresh media containing ZEP4 at concentrations ranging from 3.125 to 100 μg/ml, followed by one-hour incubation. Next, palmitic acid (PA, 200 μM) was added to the appropriate wells and the plates were incubated for additional 24 hours, then the amount of TNF alpha in each well was measured. Reduction in TNF alpha production in the treatment groups was calculated relative to cells treated with LPS and PA (CLP200).
Macrophages originating from C57BL/6 mice were cultured at a density of 200,000 cells/mL in a 24-well plate (500 μl wells) and incubated at 37° C. and 5% CO2 overnight. Following incubation, media were replaced with fresh media containing 100 ng/mL LPS, followed by three hours incubation. The LPS-containing media in the treatment groups were then replaced with fresh media containing ZEP4 at 50 μg/ml, followed by one-hour incubation. Then, aliquots of palmitic acid (100, 200 or 400 μM) were added to appropriate wells. The plates were incubated for additional 24 hour and the amount of TNF alpha in each well was measured. Reduction in TNF alpha production in the treatment groups was calculated relative to cells treated with LPS and PA, according to the PA concentration.
Macrophage cells originating from C57BL/6 mice were cultured at a density of 200,000 cells/mL in a 24-well plate (500 μl wells) and incubated at 37° C. and 5% CO2 overnight. Following incubation, media in certain experimental groups were replaced with fresh media containing 100 ng/mL LPS, followed by three hours incubation. Then, the media (LPS-containing or LPS-free) in certain experimental groups were replaced with fresh media containing ZEP3 at a concentration ranging from 3.125 to 100 μg/ml, followed by one-hour incubation. Next, palmitic acid (200 μM) aliquots were added to the appropriate wells and the plates were incubated for additional 24 hours, then the amount of TNF alpha in each well was measured. Reduction in TNF alpha production in the treatment groups was calculated relative to cells treated with LPS and PA.

[2] = system: oxazolone-induced atopic dermatitis (AD) mouse models; experiment: Oxazolone-induced atopic dermatitis mouse model, clinical lesions; format: in vivo; conditions: for Scaling: period of reduction: 1% cream topical, 50 mg/kg, scaling score of back skin; for Right ear thickness, significant difference in comparison to control: days 20, 22 and 28; for Erythema scoring: days with a significant difference / total score: days with significant difference: vs control group
Protocol: The effect of topical administration of ZEP3 (SEQ ID NO: 1), and its sodium salt form (ZEP3Na), and ZEP4 (SEQ ID NO: 2) was evaluated in oxazolone-induced atopic dermatitis (AD) mouse models. This model is widely used and well described in literature (Avci et al. 2013 Expert Opin Drug Discov. 8, 331-355; Petersen T. K. 2006, Basic Clin. Pharmacol. Toxicol. 99, 104-115) as an accepted animal model for evaluating drugs for AD therapy in humans.

[3] = system: TNF alpha; experiment: TNF alpha secretion in LPS treated human keratinocytes (ELISA); format: cell-based; conditions: for TNF alpha levels / production in LPS treated human keratinocytes (in words): compared with cells stimulated with LPS alone; for TNFα: ZEP3Na without DMSO; for Fold Change: refers to TNF-α concentration in sample #2; for % Inhibition: vs corresponding control group without peptide
Protocol: Methods: SCCE020 cells (EpiGRO™ Human Epidermal Keratinocytes) were grown in complete growth medium (EpiGRO™ Human Keratinocytes Complete Medium; Millipore Cat. #SCMK001) for 4 passages. At passage 5, cells were seeded (3*10^5 cells/well) in triplicates in a volume of 1 ml complete growth medium per well. Additional 3 control wells contained only medium without cells. Upon adherence, cell medium was replaced by basal medium containing L-Glutamine without supplements (starvation medium) and cells were starved overnight. The next day, 24 hours after seeding, the cells were treated with ZEP3 or ZEP3Na or appropriate diluent (PBS or DMSO). After 4 hours of incubation, LPS (from E. Coli 055: B5; Sigma Cat. #L6529-1MG) was added to the wells in final concentration of 20 or 30 μg/ml.
Cells were incubated for 24 hours in tissue culture incubator. After collecting cell supernatants from all wells, cells from treatment groups: 1, 2, 3, 8, 9, 10, 13, 14 (without DMSO groups) were pelleted and stored at −80° C. for further analyses. The cells were collected from as following: upon supernatants collection, the wells were rinsed with trypsin, then incubated with trypsin until they detached from the plate surface, centrifuged, washed with PBS and stored as a cell pellet. TNF-α concentration in the supernatants was measured by ELISA (Quantikine HS ELISA; R&D Systems Cat. #HSTA00D), in 5 replicates.
TNF alpha concentration in the samples was calculated according to the standard curve trend line equation: =0.063x+0.1718. Percent inhibition of TNF alpha production was calculated in each treatment group in comparison to the corresponding control group (same conditions, without peptide).

[4] = Oxazolone-induced atopic dermatitis mouse model, tolerability and bodyweights; conditions: for tolerability: 50 mg/kg topical to atopic dermatitis induced mice; for Bodyweights in comparison to the excipient: day 8 to day 28
Protocol: Method: Animals were sensitized by topical administration of oxazolone 2% in ethanol on the back at Day 0 after shaving and depilation of the animals (sensitization phase). Then a challenge was performed one week later by topical administration of oxazolone 1% in ethanol on the back and on right ear every 2 days at 10 occasions namely for total 3 weeks. The tested compounds were applied during the challenge phase every 2 days via the topical route as ready to use cream formulations. The surface of application was the same as for challenge (back+ear). 100 μL were deposited on the back and the back was smoothly massaged. Then, remaining formulation on finger glove was deposited on the internal face of the ear. Every other day, back skin and ears thickness were measured using caliper; and the following clinical scores were recorded from back skin: erythema and scaling. Animals were also weighed every other day (approximate bodyweights of a mouse at startup is about 20 g).
The formulations used for topical administration of the tested compound were: ZEP3 1% cream having pH 7.1 and comprising: Propylene glycol, Polysorbate 80, Edetate Disodium, Silicon dioxide (syloid), Methylparaben, White petrolatum, Isopropyl Myristate, Cetyl Alcohol and Glyceryl Monostearate. ZEP3Na 1% cream having pH 8.0 and comprising: Propylene glycol, Polysorbate 80, Edetate Disodium, Silicon dioxide (syloid), Methylparaben, White petrolatum, Isopropyl Myristate, Cetyl Alcohol and Glyceryl Monostearate. ZEP4 1% cream having pH 4.5 and comprising: Propylene glycol, Glycerin, Polysorbate 80, EDTA Disodium, Xanthan Gum, Silicon dioxide (syloid), Methylparaben, White petrolatum, Isopropyl Myristate, Cetyl Alcohol, Stearyl Alcohol, and Glyceryl Monostearate (kolliwax).

[5] = peptide 3.125 μg/ml, LPS 100 ng/mL, palmitic acid 200 μM, 24 hours
[6] = peptide 3.125 μg/ml, LPS 100 ng/mL, palmitic acid 200 μM, relative to cells treated with LPS and PA
[7] = peptide 6.25 μg/ml, LPS 100 ng/mL, palmitic acid 200 μM, 24 hours
[8] = peptide 6.25 μg/ml, LPS 100 ng/mL, palmitic acid 200 μM, relative to cells treated with LPS and PA
[9] = peptide 12.5 μg/ml, LPS 100 ng/mL, palmitic acid 200 μM, 24 hours
[10] = peptide 12.5 μg/ml, LPS 100 ng/mL, palmitic acid 200 μM, relative to cells treated with LPS and PA
[11] = peptide 25 μg/ml, LPS 100 ng/mL, palmitic acid 200 μM, 24 hours
[12] = peptide 25 μg/ml, LPS 100 ng/mL, palmitic acid 200 μM, relative to cells treated with LPS and PA
[13] = peptide 50 μg/ml, LPS 100 ng/mL, palmitic acid 200 μM, 24 hours
[14] = peptide 50 μg/ml, LPS 100 ng/mL, palmitic acid 200 μM, relative to cells treated with LPS and PA
[15] = peptide 100 μg/ml, LPS 100 ng/mL, palmitic acid 200 μM, 24 hours
[16] = peptide 100 μg/ml, LPS 100 ng/mL, palmitic acid 200 μM, relative to cells treated with LPS and PA
[17] = peptide control: peptide 100 μg/ml, no LPS, no palmitic acid
[18] = peptide 0.2 mg/ml, LPS 20 μg/ml
[19] = peptide 0.2 mg/ml, LPS 30 μg/ml
[20] = peptide 0.4 mg/ml, LPS 20 μg/ml

SMILES	TNF alpha [1, 5]	% reduction of TNF alpha [1, 6]	TNF alpha [1, 7]	% reduction of TNF alpha [1, 8]	TNF alpha [1, 9]	% reduction of TNF alpha [1, 10]	TNF alpha [1, 11]	% reduction of TNF alpha [1, 12]	TNF alpha [1, 13]	% reduction of TNF alpha [1, 14]	TNF alpha [1, 15]	% reduction of TNF alpha [1, 16]	TNF alpha [1, 17]	Scaling: period of reduction [2]	Right ear thickness, significant difference in comparison to control [2]	Erythema scoring: days with a significant difference [2]	total score: days with significant difference [2]	TNF alpha levels / production in LPS treated human keratinocytes (in words) [3]	tolerability [4]	Bodyweights in comparison to the excipient [4]	further results
CCCCCCCC(=O)NCCCC[C@H](NC(=O)[C@H](Cc1c[nH]c2ccccc12)NC(=O)[C@H](CC(N)=O)NC(=O)[C@@H]1CCC(=O)N1)C(=O)O [ZEP3, pGlu-Asn-Trp-Lys(Octanoyl)-OH] ([pGlu]NWK(Octanoyl)-OH)	41.98 pg/mL	82.9%	75.52 pg/mL	69.2%	74.83 pg/mL	69.5%	61.57 pg/mL	74.9%	106.75 pg/mL	56.4%	176.22 pg/mL	28.1%	10.44 pg/mL	reduced from days 18 to 24	−10.1 to −18.0%	days 22 and 24	days 20, 24 and 28	effectively diminished; also recorded: dose dependent inhibition	well tolerated	behaved normally	ED50 (reduction of TNF alpha expression) ([1]; macrophage cells treated with LPS 100 ng/mL and palmitic acid 200 μM, estimated): 51.94 µg/mL; Significant difference on back thickness vs. control group 1 ([2]; day 20): −25.5%; Significant difference on back thickness vs. control group 1 ([2]; day 24): −16.6%; TNFα ([3]; peptide 0.02 mg/ml, LPS 20 μg/ml, ZEP3 in 0.025% DMSO): 9.6 pg/mL; Fold Change ([3]; peptide 0.02 mg/ml, LPS 20 μg/ml): 3.4; TNFα ([3]; peptide 0.2 mg/ml, LPS 20 μg/ml, ZEP3 in 0.05% DMSO): 6.0 pg/mL; Fold Change [3, 18]: 2.1; % Inhibition [3, 18]: 32%; TNFα ([3]; peptide 0.2 mg/ml, LPS 30 μg/ml, ZEP3 in 0.10% DMSO): 17.3 pg/mL; Fold Change [3, 19]: 6.1; % Inhibition [3, 19]: 20%; TNFα ([3]; peptide 0.4 mg/ml, LPS 20 μg/ml, ZEP3 in 0.10% DMSO): 4.6 pg/mL; Fold Change [3, 20]: 1.6; % Inhibition [3, 20]: 48%
C[C@@H](O)[C@H](NC(=O)[C@H](Cc1c[nH]c2ccccc12)NC(=O)[C@H](CC(N)=O)NC(=O)[C@@H]1CCC(=O)N1)C(=O)O [ZEP4, pGlu-Asn-Trp-Thr-OH] (HELM PEPTIDE1{[Glp].N.W.T}$$$$V2.0)	97.79 pg/mL	70.6%	89.83 pg/mL	73.0%	93.12 pg/mL	72.0%	115.58 pg/mL	65.2%	76.23 pg/mL	77.0%	211.68 pg/mL	36.3%	0 pg/mL	from days 14 to 24	−12.3 to −16.0%	days 12, 16, 22 and 24	days 12-20, 24 and 28	effectively diminished	well tolerated	behaved normally	TNF alpha ([1]; Table 2: ZEP4 50 μg/ml, LPS 100 ng/ml, palmitic acid 100 μM): 133.93 pg/mL; % reduction of TNF alpha ([1]; Table 2: ZEP4 50 μg/ml, LPS 100 ng/ml, palmitic acid 100 μM, relative to LPS and PA 100 μM): 67.8**** %; TNF alpha ([1]; Table 2: ZEP4 50 μg/ml, LPS 100 ng/ml, palmitic acid 200 μM): 167.52 pg/mL; % reduction of TNF alpha ([1]; Table 2: ZEP4 50 μg/ml, LPS 100 ng/ml, palmitic acid 200 μM, relative to LPS and PA 200 μM): 63.7**** %; TNF alpha ([1]; Table 2: ZEP4 50 μg/ml, LPS 100 ng/ml, palmitic acid 400 μM): 252.177 pg/mL; % reduction of TNF alpha ([1]; Table 2: ZEP4 50 μg/ml, LPS 100 ng/ml, palmitic acid 400 μM, relative to LPS and PA 400 μM): 57.5**** %; Significant difference on back thickness vs. control group 1 ([2]; day 14): −13.5%
